Converted amounts (≈) assume the structure as drawn.
Legend:
[1] = system: Haemophilus influenzae (H. influenzae) 49247; assay: Antibacterial activity, MIC (Table 6); assay type: cell-based
From the text: (§1) The antibacterial activity from a microbroth dilution method may be presented as the minimum inhibitory concentration (MIC in μg/mL). The MIC value is the lowest concentration of drug which prevents macroscopically visible growth under test conditions.
(§2) Antibacterial activity of test compounds against the Gram-negative bacteria Haemophilus influenzae (H. influenzae) 49247 is shown in Table 6, Moraxella catarrhalis (M. catarrhalis) 25238 is shown in Table 7 and Neisseria meningitidis (N. meningitidis) 13090 is shown in Table 8.

[2] = system: Moraxella catarrhalis (M. catarrhalis) 25238; assay: Antibacterial activity, MIC (Table 7); assay type: cell-based
From the text: as §1, §2

[3] = system: Acinetobacter baumannii (A. baumannii) BAA747; assay: Antibacterial activity, MIC (Table 4); assay type: cell-based; details: A. baumannii BAA747, read-out: MIC, BAA747
Summary of the method: (§3)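 Broth microdilution; MIC (μg/mL) = lowest concentration with no macroscopically visible growth. Resistant strains: multi-drug resistant clinical isolates.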

[4] = system: Klebsiella pneumoniae (K. pneumoniae) 35657; assay: Antibacterial activity, MIC (Table 4); assay type: cell-based; details: K. pneumoniae 35657, read-out: MIC, 35657
Summary of the method: as §3

[5] = system: Staphylococcus aureus (S. aureus) 29213; assay: Antibacterial activity, microbroth dilution MIC (Table 1); assay type: cell-based; details: microbroth dilution, Gram-positive S. aureus 29213, read-out: MIC, 29213
Summary of the method: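 Potency is reported as minimum inhibitory concentration in μg/mL, determined by broth microdilution as the lowest level of compound that stops growth visible to the eye.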

[6] = system: Escherichia coli (E. coli) BAS849; assay: as above; assay type: cell-based; details: microbroth dilution, super sensitive Gram-negative E. coli BAS849, read-out: MIC, BAS849
Summary of the method: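 Using broth microdilution, MIC endpoints (μg/mL) mark where visible growth no longer appears; the panel spans sensitive and control Gram-negative strains plus a Gram-positive strain.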

[7] = system: Pseudomonas aeruginosa (P. aeruginosa) 27853; assay: Antibacterial activity, MIC (Table 5); assay type: cell-based; details: P. aeruginosa 27853, read-out: MIC, 27853
Summary of the method: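 Using a microbroth dilution format, the minimum inhibitory concentration was recorded as the lowest tested concentration that stopped visible bacterial growth, expressed in μg/mL.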

E. coli LZ3111 = assay: Antibacterial activity, MIC, quinolone resistant strain (Table 2); assay type: cell-based; details: Escherichia coli, LZ3111, read-out: MIC LZ3111
Summary of the method: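 Growth inhibition assessed by serial drug dilution in broth; endpoint was absence of macroscopically visible growth, reported as MIC, μg/mL.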

[8] = system: Neisseria meningitidis (N. meningitidis) 13090; assay: Antibacterial activity, MIC (Table 8); assay type: cell-based
From the text: as §1, §2

E. coli ELZ4251 = assay: Antibacterial activity, MIC, multi-drug resistant clinical isolate (Table 3); assay type: cell-based; details: Escherichia coli
Summary of the method: (§4)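 Values derive from a microbroth dilution method, taking as MIC (μg/mL) the lowest tested concentration without macroscopically visible growth.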

E. coli ELZ4000 = assay: as above; assay type: cell-based; details: Escherichia coli, ELZ4000, read-out: MIC ELZ4000
Summary of the method: as §4

E. coli 25922 = assay: Antibacterial activity, microbroth dilution MIC (Table 1); assay type: cell-based, Escherichia coli; details: Escherichia coli; microbroth dilution; control Gram-negative E. coli 25922 strain; read-out: MIC, 25922
Summary of the method: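 In a microbroth dilution test, the minimum inhibitory concentration was defined as the lowest compound level preventing growth seen by eye, and was given in μg/mL.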

A. baumannii MXX2240 = assay: Antibacterial activity, MIC, resistant strain (Table 4); assay type: cell-based; details: Acinetobacter baumannii, MXX2240; resistant A. baumannii MMX2240, multi-drug resistant clinical isolate; read-out: MIC, MMX2240
Summary of the method: as §3

K. pneumoniae MXX1232 = assay: as above; assay type: cell-based; details: Klebsiella pneumoniae, MXX1232; resistant K. pneumoniae MMX1232, multi-drug resistant clinical isolate; read-out: MIC, MMX1232
Summary of the method: as §3

SMILES	MIC [1]	MIC [2]	MIC [3]	MIC [4]	MIC [5]	MIC [6]	MIC [7]	MIC (E. coli LZ3111)	MIC [8]	MIC (E. coli ELZ4251)	MIC (E. coli ELZ4000)	MIC (E. coli 25922)	MIC (A. baumannii MXX2240)	MIC (K. pneumoniae MXX1232)
CCc1c(-c2ccc3c(c2)cc(CNCC2CCCC2)n3C)[nH]c(=O)c(C(=O)O)c1O.Cl [Cpd 236, 6-(2-((cyclopentylmethylamino)methyl)-1-methyl-1H-indol-5-yl)-5-ethyl-4-hydroxy-2-oxo-1,2-dihydropyridine-3-carboxylic acid hydrochloride]	1 to 3.5 µg/mL	< 1 µg/mL	1 to 3.5 µg/mL	1 to 3.5 µg/mL	3.5 to 12.5 µg/mL	< 1 µg/mL	12.5 to 150 µg/mL	3.5 to 12.5 µg/mL	< 1 µg/mL	12.5 to 150 µg/mL	12.5 to 150 µg/mL	< 1 µg/mL	1 to 3.5 µg/mL	12.5 to 150 µg/mL
CCc1c(-c2ccc3c(c2)cc(CN(C)C)n3C)[nH]c(=O)c(C(=O)O)c1O [Cpd 166, 6-(2-((dimethylamino)methyl)-1-methyl-1H-indol-5-yl)-5-ethyl-4-hydroxy-2-oxo-1,2-dihydropyridine-3-carboxylic acid]	< 1 µg/mL	< 1 µg/mL	< 1 µg/mL	< 1 µg/mL	3.5 to 12.5 µg/mL (≈ 9.47 to 33.8 µM)	< 1 µg/mL	3.5 to 12.5 µg/mL (≈ 9.47 to 33.8 µM)	3.5 to 12.5 µg/mL (≈ 9.47 to 33.8 µM)	< 1 µg/mL	3.5 to 12.5 µg/mL (≈ 9.47 to 33.8 µM)	12.5 to 150 µg/mL (≈ 33.8 to 406 µM)	< 1 µg/mL	1 to 3.5 µg/mL (≈ 2.71 to 9.47 µM)	12.5 to 150 µg/mL (≈ 33.8 to 406 µM)
CCc1c(-c2ccc3c(c2)cc(CN(C)CC2CC2)n3C)[nH]c(=O)c(C(=O)O)c1O.Cl [Cpd 210, 6-(2-(((cyclopropylmethyl)(methyl)amino)methyl)-1-methyl-1H-indol-5-yl)-5-ethyl-4-hydroxy-2-oxo-1,2-dihydropyridine-3-carboxylic acid hydrochloride]	1 to 3.5 µg/mL	< 1 µg/mL	1 to 3.5 µg/mL	3.5 to 12.5 µg/mL	3.5 to 12.5 µg/mL	< 1 µg/mL	12.5 to 150 µg/mL	3.5 to 12.5 µg/mL	< 1 µg/mL	3.5 to 12.5 µg/mL	12.5 to 150 µg/mL	< 1 µg/mL	12.5 to 150 µg/mL	12.5 to 150 µg/mL
CCc1c(-c2ccc3c(c2)cc(CN2CCCN(C)CC2)n3C)[nH]c(=O)c(C(=O)O)c1O.Cl.Cl [Cpd 238, 5-ethyl-4-hydroxy-6-(1-methyl-2-((4-methyl-1,4-diazepan-1-yl)methyl)-1H-indol-5-yl)-2-oxo-1,2-dihydropyridine-3-carboxylic acid dihydrochloride]	< 1 µg/mL	1 to 3.5 µg/mL	3.5 to 12.5 µg/mL	1 to 3.5 µg/mL	3.5 to 12.5 µg/mL	< 1 µg/mL	12.5 to 150 µg/mL	1 to 3.5 µg/mL	< 1 µg/mL	12.5 to 150 µg/mL	12.5 to 150 µg/mL	1 to 3.5 µg/mL	12.5 to 150 µg/mL	12.5 to 150 µg/mL
CCc1c(-c2ccc3c(c2)cc(CN2C[C@H]4CCC[C@@H](NC)[C@H]4C2)n3C)[nH]c(=O)c(C(=O)O)c1O [Cpd 282, 5-ethyl-4-hydroxy-6-(1-methyl-2-(((3aR,4R,7aS)-4-(methylamino)-1H-isoindol-2(3H,3aH,4H,5H,6H,7H,7aH)-yl)methyl)-1H-indol-5-yl)-2-oxo-1,2-dihydropyridine-3-carboxylic acid]	1 to 3.5 µg/mL (≈ 2.09 to 7.31 µM)	3.5 to 12.5 µg/mL (≈ 7.31 to 26.1 µM)	12.5 to 150 µg/mL (≈ 26.1 to 313 µM)	1 to 3.5 µg/mL (≈ 2.09 to 7.31 µM)	12.5 to 150 µg/mL (≈ 26.1 to 313 µM)	< 1 µg/mL	12.5 to 150 µg/mL (≈ 26.1 to 313 µM)	1 to 3.5 µg/mL (≈ 2.09 to 7.31 µM)	1 to 3.5 µg/mL (≈ 2.09 to 7.31 µM)	3.5 to 12.5 µg/mL (≈ 7.31 to 26.1 µM)	12.5 to 150 µg/mL (≈ 26.1 to 313 µM)	< 1 µg/mL	12.5 to 150 µg/mL (≈ 26.1 to 313 µM)	12.5 to 150 µg/mL (≈ 26.1 to 313 µM)
CCc1c(-c2ccc3c(c2)cc(CNC)n3C)[nH]c(=O)c(C(=O)O)c1O [Cpd 203, 5-ethyl-4-hydroxy-6-(1-methyl-2-((methylamino)methyl)-1H-indol-5-yl)-2-oxo-1,2-dihydropyridine-3-carboxylic acid]	< 1 µg/mL	< 1 µg/mL	< 1 µg/mL	–	3.5 to 12.5 µg/mL (≈ 9.85 to 35.2 µM)	< 1 µg/mL	1 to 3.5 µg/mL (≈ 2.81 to 9.85 µM)	1 to 3.5 µg/mL (≈ 2.81 to 9.85 µM)	< 1 µg/mL	1 to 3.5 µg/mL (≈ 2.81 to 9.85 µM)	3.5 to 12.5 µg/mL (≈ 9.85 to 35.2 µM)	< 1 µg/mL	3.5 to 12.5 µg/mL (≈ 9.85 to 35.2 µM)	12.5 to 150 µg/mL (≈ 35.2 to 422 µM)

— patent US9409905B2, “Antibacterial compounds and methods for use” (PTC THERAPEUTICS, INC., priority 2011, dated 2016)
